Patent US7186534B1 (The Trustees of Columbia University in the City of New York, priority 1997, dated 2007)
Like-named read-outs stand apart in the source and are kept apart here.

Tests used:
[1] = target: rat liver and human prostate 17β-hydroxysteroid dehydrogenase (identical to retinol dehydrogenase, type I); settings: cited from earlier work
[2] = target: T1, human 9-cis retinol dehydrogenase (9cRDH) (Homo sapiens, UniProt Q92781); experiment: Inhibition of recombinant human 9cRDH activity (9-cis-retinol oxidation, CHO cell homogenate, HPLC); type: biochemical
T1 sequence (Q92781 1-318): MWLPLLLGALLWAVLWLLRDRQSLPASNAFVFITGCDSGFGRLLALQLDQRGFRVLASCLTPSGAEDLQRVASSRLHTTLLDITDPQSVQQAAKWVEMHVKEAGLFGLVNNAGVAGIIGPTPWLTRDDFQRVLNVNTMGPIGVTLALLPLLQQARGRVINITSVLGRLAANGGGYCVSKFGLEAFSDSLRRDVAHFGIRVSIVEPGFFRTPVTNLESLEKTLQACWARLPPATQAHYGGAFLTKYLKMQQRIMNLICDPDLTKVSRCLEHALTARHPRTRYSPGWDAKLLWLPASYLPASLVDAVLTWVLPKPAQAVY

mouse 9cRDH [3] = target: T2, mouse 9cRDH (Mus musculus, UniProt O55240); experiment: Inhibition of recombinant mouse 9cRDH activity (9-cis-retinol oxidation, CHO cell homogenate, HPLC); type: biochemical; settings: for inhibition of mouse 9cRDH activity (in words): 10 μM 9-cis-retinol
T2 sequence (O55240 1-318): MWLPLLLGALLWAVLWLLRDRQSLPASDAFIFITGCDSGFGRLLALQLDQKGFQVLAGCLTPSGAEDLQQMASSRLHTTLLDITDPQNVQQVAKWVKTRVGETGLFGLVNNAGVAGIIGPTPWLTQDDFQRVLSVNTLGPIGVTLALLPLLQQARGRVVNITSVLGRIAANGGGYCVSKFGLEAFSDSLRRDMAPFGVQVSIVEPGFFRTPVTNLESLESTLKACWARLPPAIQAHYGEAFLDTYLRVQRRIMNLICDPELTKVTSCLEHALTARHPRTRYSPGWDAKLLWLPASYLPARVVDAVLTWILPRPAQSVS

[4] = Isomerization of retinoic acids in the human 9-cis retinol dehydrogenase assay; type: physicochemical; settings: for 9-cis isomer present at end of assay / 13-cis isomer present at end of assay / all-trans isomer present at end of assay: 37° C., 15 minutes; for final concentration of 13-cis-retinoic acid formed by isomerization: 10 μM retinoic acid, end of the 15 minute assay
Experimental: Inhibition Studies of 9cRDH Activity. For the inhibition experiments, each potential inhibitor tested was added to the recombinant 9cRDH in 5 μl of ethanol in the presence of 2 mM NAD^+, 10 mM Hepes, pH 8.0, containing 150 mM KCl, 1 mM EDTA, and 50 μg phosphotidyl choline (assay incubation mixture lacking the retinoid substrate). This mixture was allowed to sit on ice for 5 minutes prior to adding substrate. Upon addition of 10 μM 9-cis-retinol (final concentration), the mixture was incubated for 15 minutes at […] with agitation and extracted as described above for the standard enzyme assay. HPLC Procedures. Stereoisomers of both retinol and retinaldehyde were separated on a 4.6×15-mm Supelco (Belefonte, Pa.) LC-SI Supelcosil™ column using hexane:ethyl acetate:butanol (96.9:3:0.1 v/v) as the mobile phase flowing at 0.8 ml/min. A silica guard column (Supelco) preceded the running column. Retinols and retinaldehydes were detected using a Waters 996 Photodiode array detector at absorbances of 325 and 365 nm, respectively. Retention times for all-trans-, 9-cis-, 11-cis-, and 13-cis-retinols and corresponding retinaldehydes were established using the purified compounds obtained as described above. Quantities of each retinol and retinaldehyde isomer present in extracts were determined by comparisons of the integrated areas under the HPLC peaks with a standard curve constructed relating integrated peak area with known masses of each retinoid isomer. The concentration of each retinoid isomer were determined by UV-visible spectrophotometry using published extinction coefficients for each retinol, retinaldehyde or retinoic acid isomer (25).
To test this possibility, the degree of isomerization of retinoic acid which occurs under the assay conditions was measured.

[5] = animals and humans receiving 13-cis-retinoic acid pharmacologically; cited from earlier work
visual cycle = settings: administration to frogs; cited from earlier work
[6] = target: human alcohol dehydrogenase type IV (Homo sapiens, UniProt P40394); settings: cited from earlier work
Sequence of human alcohol dehydrogenase type IV (P40394 whole entry): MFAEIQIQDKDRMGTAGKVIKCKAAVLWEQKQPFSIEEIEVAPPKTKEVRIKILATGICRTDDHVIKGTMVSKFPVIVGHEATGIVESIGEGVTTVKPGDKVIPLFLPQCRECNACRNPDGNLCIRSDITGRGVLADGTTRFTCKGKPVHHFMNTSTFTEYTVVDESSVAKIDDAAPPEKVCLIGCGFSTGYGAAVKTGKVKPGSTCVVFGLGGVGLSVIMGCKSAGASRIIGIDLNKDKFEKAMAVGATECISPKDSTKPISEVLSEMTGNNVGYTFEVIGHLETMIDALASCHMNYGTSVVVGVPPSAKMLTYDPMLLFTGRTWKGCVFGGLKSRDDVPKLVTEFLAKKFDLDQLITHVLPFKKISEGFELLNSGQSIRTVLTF

mouse 9cRDH [7] = target: T2, mouse 9cRDH; experiment: Hydroxysteroid oxidation/reduction by mouse 9cRDH (TLC); type: biochemical; settings: 37° C., 1.5 h; TLC detection limit approximately 3 pmol/min/mg protein
Experimental: (§1) To investigate whether human or mouse 9cRDH will catalyze oxidations or reductions of 3α-hydroxy-, 11β-hydroxy- or 17β-hydroxysteroids, these steroids were incubated at 37° C. for 1.5 h in the assay media described above for assessing oxidation/reduction of 9-cis-retinol/9-cis-retinaldehyde. The Hepes NAD^+-containing assay buffer described above was employed to assess hydroxysteroid oxidation and to assess hydroxysteroid reduction the acetate buffer containing NADH (or NADPH) assay buffer (see above) was employed. Immediately following incubation, the steroids were extracted as described above for retinoids. The final hexane extract was evaporated to near dryness and this was spotted onto a silica high performance TLC plate (Whatman Inc., Clifton, N.J.) and developed in hexane/diethyl ether/acetic acid (70:30:1, v/v) or ethyl acetate/chloroform (25:75, v/v). Steroids were visualized by charring after treatment of the TLC plates with an areosol of 10% (v/v) H2SO4 in methanol.
(§2) Biswas and Russell (32) have reported that rat liver all-trans-retinol dehydrogenase type I also uses several 3α-hydroxy- and 17β-hydroxysteroids as substrates. Chai et al. (18) also reported that hydroxysteroids are substrates for mouse liver cis-retinol dehydrogenase. Since human 9cRDH is approximately 50% identical to the rat liver enzymes and shares approximately 63% homology to mouse liver cis-retinol dehydrogenase, next investigated was whether these steroids might also be substrates for 9cRDH. To test this possibility it was determined whether human or mouse 9cRDH would catalyze oxidation of 5α-androstan-3α, 17β-diol, androsterone, testosterone or dihydrotestosterone to corresponding ketone products. Also investigated was whether human and/or mouse 9cRDH could catalyze reduction of the corresponding ketones. […] It is estimate, based on the lower limits for hydroxysteroid detection by TLC, that it would be possible to detect rates of hydroxysteroid oxidation as low as approximately 3 pmol/min/mg protein. This rate of hydroxysteroid oxidation is at least 2-orders of magnitude lower than Vmax values reported by Biswas and Russell (32) and Chai et al. (18) for oxidation of hydroxysteroids in their studies of enzymes that are able to oxidize both retinol and hydroxysteroids.

human 9cRDH = target: T3, human 9cRDH (Homo sapiens, UniProt Q92781); experiment: Hydroxysteroid oxidation/reduction by human 9cRDH (TLC); type: biochemical; settings: 37° C., 1.5 h; TLC detection limit approximately 3 pmol/min/mg protein
T3 sequence (Q92781 1-318): T1 sequence (Q92781 1-318)
Experimental: as §1, §2

[8] = 1 μM 13-cis Retinoic Acid at start
[9] = 10 μM steroid, equimolar to substrate, forward (retinol oxidation) or reverse (retinaldehyde reduction) direction

For `CC1=C(/C=C/C(C)=C\C=C\C(C)=C\C(=O)O)C(C)(C)CCC1` [9-cis Retinoic Acid, 9-cis-retinoic acid], the Ki [1] is given as 0.4 µM, the “times (fold) less potent than 13-cis retinoic acid as inhibitor of 9cRDH” value [2] is given as 18 and the “inhibition of human 9cRDH activity (in words)” value ([2]; 10 μM 9-cis-retinol, listed as 9-cis retinoic acid) is given as “potent inhibitors”. For the same compound, the “inhibition of human 9cRDH activity (in words)” value ([2]; 10 μM 9-cis-retinol, listed as 9-cis-retinoic acid) was “very potent inhibitors”, the “inhibition of 9cRDH activity” value ([2]; 10 μM retinoic acid) was 81% and the “inhibition of mouse 9cRDH activity (in words)” value (mouse 9cRDH [3]) was “very potent inhibitors”. The “9-cis isomer present at end of assay” value ([4]; 10 μM retinoic acid at start) was 94.7%, the “13-cis isomer present at end of assay” value ([4]; 10 μM retinoic acid at start) was 1.1% and the “all-trans isomer present at end of assay” value ([4]; 10 μM retinoic acid at start) was 4.2%. For the same compound, the “13-cis isomer present at end of assay” value ([4]; 10 μM retinoic acid at start, listed as 9-cis-retinoic acid) was roughly 1.1% and the “final concentration of 13-cis-retinoic acid formed by isomerization” value [4] was “approximately 0.1 μM”.

In the case of `CC1=C(/C=C/C(C)=C/C=C/C(C)=C\C(=O)O)C(C)(C)CCC1` [13-cis Retinoic Acid, 13-cis-retinoic acid], the “concentrations reached in the blood and tissues” value [5] is given as no less than 10 µM, the “block of the visual cycle in vivo (in words)” value (visual cycle) is given as “block the visual cycle” and the Ki [1] is given as 4 µM. The “inhibition of purified human alcohol dehydrogenase type IV (in words)” value [6] was “in vitro inhibition”, the “concentration at which human 9cRDH is potently inhibited” value [2] was 0.05 µM and the “expected inhibition of h9cRDH activity” value ([2]; 0.1 μM 13-cis-retinoic acid present for the full 15 minute incubation) was 40–50%. The “inhibition of human 9cRDH activity (in words)” value ([2]; 10 μM 9-cis-retinol, listed as 13-cis retinoic acid) was “potent inhibitors”, the “inhibition of human 9cRDH activity (in words)” value ([2]; 10 μM 9-cis-retinol, listed as 13-cis-retinoic acid) was “very potent inhibitors” and the “concentration at which mouse 9cRDH is potently inhibited” value (mouse 9cRDH [3]) was 0.05 µM. For the same compound, the “inhibition of mouse 9cRDH activity (in words)” value (mouse 9cRDH [3]) was “very potent inhibitors”, the IC50 (mouse 9cRDH [3]; substrate concentration 10 μM, read-out: Inhibitor concentration giving approximately 50% inhibition of m9cRDH activity) was roughly 0.15 µM and the “13-cis isomer present at end of assay” value [4, 8] was 98.4%. The “all-trans isomer present at end of assay” value [4, 8] was 1.6%.

In the case of `CC1=C(/C=C/C(C)=C/C=C/C(C)=C/C(=O)O)C(C)(C)CCC1` [all-trans Retinoic Acid, all-trans-retinoic acid], the “block of the visual cycle in vivo (in words)” value (visual cycle) is given as “block the visual cycle”, the “times (fold) less potent than 13-cis retinoic acid as inhibitor of 9cRDH” value [2] is given as 30 and the IC50 ([2]; 10 μM 9-cis-retinol, 15 min, 37° C., CHO cell homogenate, read-out: Estimated inhibitor concentration resulting in 50% inhibition of human 9-cis retinol dehydrogenase activity (ID50)) is given as 4.6 µM. For the same compound, the “inhibition of human 9cRDH activity (in words)” value ([2]; 10 μM 9-cis-retinol, listed as all-trans retinoic acid) was “potent inhibitors”, the “inhibition of human 9cRDH activity (in words)” value ([2]; 10 μM 9-cis-retinol, listed as all-trans-retinoic acid) was “very potent inhibitors” and the inhibition at 10 µM ([2]; 10 μM retinoic acid) was 66%. The “inhibition of mouse 9cRDH activity (in words)” value (mouse 9cRDH [3]) was “very potent inhibitors”, the “9-cis isomer present at end of assay” value ([4]; 10 μM retinoic acid at start) was 0.4% and the “13-cis isomer present at end of assay” value ([4]; 10 μM retinoic acid at start) was 0.8%. The “all-trans isomer present at end of assay” value ([4]; 10 μM retinoic acid at start) was 98.8%, the “13-cis isomer present at end of assay” value ([4]; 10 μM retinoic acid at start, listed as all-trans-retinoic acid) was “approximately 1%” and the “final concentration of 13-cis-retinoic acid formed by isomerization” value [4] was “approximately 0.1 μM”.

For `C[C@]12CC[C@@H](O)C[C@@H]1CC[C@@H]1[C@@H]2CC[C@]2(C)C(=O)CC[C@@H]12` [androsterone], the “inhibition of human 9cRDH activity by hydroxysteroids” value [2] was “none of these hydroxysteroids inhibited”, the “catalysis by mouse 9cRDH of hydroxysteroid oxidation to ketone products (or reduction of the corresponding ketones)” value (mouse 9cRDH [7]) was “Neither human nor mouse 9cRDH were found to catalyze” and the “inhibition of mouse 9cRDH activity by hydroxysteroids” value (mouse 9cRDH [3]) was “none of these hydroxysteroids inhibited”. For the same compound, the “catalysis by human 9cRDH of hydroxysteroid oxidation to ketone products (or reduction of the corresponding ketones)” value (human 9cRDH) was “Neither human nor mouse 9cRDH were found to catalyze”.

In the case of `C[C@]12CC[C@H]3[C@@H](CCC4=CC(=O)CC[C@@]43C)[C@@H]1CC[C@@H]2O` [testosterone], the “inhibition of human 9cRDH activity by hydroxysteroids” value [2, 9] is reported as “none of these hydroxysteroids inhibited”, the “catalysis by mouse 9cRDH of hydroxysteroid oxidation to ketone products (or reduction of the corresponding ketones)” value (mouse 9cRDH [7]) is reported as “Neither human nor mouse 9cRDH were found to catalyze” and the “inhibition of mouse 9cRDH activity by hydroxysteroids” value (mouse 9cRDH [3]; [9]) is reported as “none of these hydroxysteroids inhibited”. For the same compound, the “catalysis by human 9cRDH of hydroxysteroid oxidation to ketone products (or reduction of the corresponding ketones)” value (human 9cRDH) was “Neither human nor mouse 9cRDH were found to catalyze”.
